{"source": "patent US6660501B2", "about": "“Production of proteins by cell culture” (Lonza Group, AG, priority 1986, dated 2003)", "key": {"[1]": {"test_system": "IgM secreting mouse hybridoma cell line NB1/19", "assay": "Effect of sodium butyrate on hybridoma cell growth and antibody production, serum-free medium, shake flasks (ELISA)", "assay_type": "cell-based", "description": "(§1) The IgM secreting mouse hybridoma cell line NB1/19 was grown in suspension culture in Dulbeccos Modified Eagles Minimum (DMEM) serum-free medium containing albumin, insulin, transferrin, gentamycin and other additives as required to cultivate cells in suspension culture. The NB1/19 cell line produces a mouse monoclonal antibody having specificity for an antigenic determinant of human B-type blood cells. The preparation of this call line is described in detail in the specification of British Patent GB 2097425B. It will be appreciated, however, that other hybridoma cell lines may be used in place of this particular cell line as appropriate in this and other examples.\nThe cells were grown to a viable cell density of 1.0-1.5×10^6 cells/ml. Viable cell density was determined by counting the number of cells which exclude trypan blue, a staining agent. A sample of the suspension culture was diluted in a serum-free medium to a density of about 1.3×10^5 cells/ml. Aliquots of 50 ml in volume were dispensed into shake flasks and sodium butyrate added at concentrations of 0.1 mM, 0.3 mM, 0.5 mM and 1.0 mM.\n(§2) The shake flasks were gassed with 5% CO2-95% air, and sealed and incubated with shaking at 37° C. for up to 207 hours. (Table 1). Samples ([…]) were removed from the culture by pipette. 100 μl was used to determine viable cell count and the reminder centrifuged at 300×g for five minutes. Supernatants were stored at −20° C. prior to antibody determination by enzyme linked immunosorbent assay (ELISA)."}, "[2]": {"test_system": "Syrian hamster cells with plasmid containing SV40 genome and HSV-TK gene", "settings": "concentrations ranging from 1 mM to 5 mM; Yuan et al; cited from earlier work"}, "[3]": {"test_system": "hybridoma cell line D", "assay": "Harvest antibody titre, hybridoma cell line D", "assay_type": "cell-based", "settings": "SFM + 10% FCS, control 29", "description": "(§3) Hybridoma cells were grown in suspension culture in either serum-free medium (see Example 1) or in DMEM supplemented with 10% (v/v), heat inactivated foetal calf serum. Cells were cultured in either roller bottles or in shake-flasks, as in Example 1. Sodium butyrate was added to cultures immediately after inoculation."}, "[4]": {"test_system": "hybridoma cell line G", "assay": "Harvest antibody titre, hybridoma cell line G", "assay_type": "cell-based", "settings": "SFM, control 10", "description": "as §3"}, "[5]": {"test_system": "Hybridoma cells", "assay": "Effect of sodium butyrate on a variety of hybridoma cell lines (summary statement)", "assay_type": "cell-based", "settings": "butyrate added immediately after inoculation", "description": "as §3"}, "[6]": {"test_system": "hybridoma cells (as Example 1, NB1/19)", "assay": "Butyrate-enhanced antibody production in hybridoma cells cultured in serum supplemented medium", "assay_type": "cell-based, mouse", "settings": "DMEM + 10% foetal calf serum", "description": "as §1\nThe cells were grown to a viable cell density of 1.0-1.5×10^6 cells/ml. Viable cell density was determined by counting the number of cells which exclude trypan blue, a staining agent. A sample of the suspension culture was diluted in a serum-free medium to a density of about 1.3×10^5 cells/ml. […]\nas §2\nThe protocol for this experiment is similar to that outlined in Example 1, except that the cells were cultured in Dulbeccos Modified Eagles Minimum medium supplemented with 10% foetal calf serum."}}, "data": [{"molecule": "CCCC(=O)[O-].[Na+]", "note": "[sodium butyrate]", "values": [{"measurement": "Average specific rate of antibody production", "setting": "[1]; 0.1 mM sodium butyrate", "result": 26, "unit": "μg/10^6 cells/day"}, {"measurement": "antibody concentration", "setting": "[1]; 0.1 mM sodium butyrate, 41 hours", "result": 34, "unit": "µg/mL"}, {"measurement": "antibody concentration", "setting": "[1]; 0.1 mM sodium butyrate, 87 hours", "result": 90, "unit": "µg/mL"}, {"measurement": "antibody concentration", "setting": "[1]; 0.1 mM sodium butyrate, 137 hours", "result": 128, "unit": "µg/mL"}, {"measurement": "Average specific rate of antibody production", "setting": "[1]; 0.3 mM sodium butyrate", "result": 26, "unit": "μg/10^6 cells/day"}, {"measurement": "antibody concentration", "setting": "[1]; 0.3 mM sodium butyrate, 41 hours", "result": 41, "unit": "µg/mL"}, {"measurement": "antibody concentration", "setting": "[1]; 0.3 mM sodium butyrate, 87 hours", "result": 114, "unit": "µg/mL"}, {"measurement": "antibody concentration", "setting": "[1]; 0.3 mM sodium butyrate, 137 hours", "result": 147, "unit": "µg/mL"}, {"measurement": "Average specific rate of antibody production", "setting": "[1]; 0.5 mM sodium butyrate", "result": 31, "unit": "μg/10^6 cells/day"}, {"measurement": "antibody concentration", "setting": "[1]; 0.5 mM sodium butyrate, 41 hours", "result": 50, "unit": "µg/mL"}, {"measurement": "antibody concentration", "setting": "[1]; 0.5 mM sodium butyrate, 87 hours", "result": 173, "unit": "µg/mL"}, {"measurement": "antibody concentration", "setting": "[1]; 0.5 mM sodium butyrate, 137 hours", "result": 173, "unit": "µg/mL"}, {"measurement": "Average specific rate of antibody production", "setting": "[1]; 1.0 mM sodium butyrate", "result": 52, "unit": "μg/10^6 cells/day"}, {"measurement": "antibody concentration", "setting": "[1]; 1.0 mM sodium butyrate, 41 hours", "result": 39, "unit": "µg/mL"}, {"measurement": "antibody concentration", "setting": "[1]; 1.0 mM sodium butyrate, 137 hours", "result": 180, "unit": "µg/mL"}, {"measurement": "antibody concentration", "setting": "[1]; 1.0 mM sodium butyrate, 207 hours", "result": 256, "unit": "µg/mL"}, {"measurement": "expression of SV40 and HSV-TK genes compared with control values", "setting": "[2]", "result": "inhibited the expression of both genes"}, {"measurement": "HARVEST ANTIBODY TITER", "setting": "[3]; 0.35 mM butyrate", "result": 39, "unit": "mg/L"}, {"measurement": "HARVEST ANTIBODY TITER", "setting": "[3]; 0.50 mM butyrate", "result": 50, "unit": "mg/L"}, {"measurement": "HARVEST ANTIBODY TITER", "setting": "[4]; 0.25 mM butyrate", "result": 11, "unit": "mg/L"}, {"measurement": "HARVEST ANTIBODY TITER", "setting": "[4]; 0.50 mM butyrate", "result": 13, "unit": "mg/L"}, {"measurement": "amount of antibody produced per cell", "setting": "[5]", "result": "increased the amount of antibody produced per cell"}, {"measurement": "Average specific rate of antibody production", "setting": "[6]; 0.5 mM sodium butyrate", "result": 39, "unit": "μg/10^6 cells/day"}, {"measurement": "Maximum antibody concentration", "setting": "[6]; 0.5 mM sodium butyrate", "result": 54, "unit": "µg/mL"}, {"measurement": "Average specific rate of antibody production", "setting": "[6]; 0.75 mM sodium butyrate", "result": 69, "unit": "μg/10^6 cells/day"}, {"measurement": "Maximum antibody concentration", "setting": "[6]; 0.75 mM sodium butyrate", "result": 55, "unit": "µg/mL"}]}]}
